Measured values reported in patent US20100022531A1, “NOVEL COMPOUNDS AS P2X7 MODULATORS AND USES THEREOF” (RENOVIS, INC., priority 2005, published 2010).

The molecules below were run against T1, P2X7 receptor (Homo sapiens, UniProt Q99572) (assay: Alternate method for IL-1β release assay (differentiated THP-1 cells, BzATP-stimulated, ELISA)). Details: P2X7; 0.1 μM compound (plus symbols); read-out: IL-1β % inhib @ 0.1 μM.
T1 construct: host or cells: THP-1 cells differentiated with LPS and IFN-γ
T1 sequence (Q99572 1-595): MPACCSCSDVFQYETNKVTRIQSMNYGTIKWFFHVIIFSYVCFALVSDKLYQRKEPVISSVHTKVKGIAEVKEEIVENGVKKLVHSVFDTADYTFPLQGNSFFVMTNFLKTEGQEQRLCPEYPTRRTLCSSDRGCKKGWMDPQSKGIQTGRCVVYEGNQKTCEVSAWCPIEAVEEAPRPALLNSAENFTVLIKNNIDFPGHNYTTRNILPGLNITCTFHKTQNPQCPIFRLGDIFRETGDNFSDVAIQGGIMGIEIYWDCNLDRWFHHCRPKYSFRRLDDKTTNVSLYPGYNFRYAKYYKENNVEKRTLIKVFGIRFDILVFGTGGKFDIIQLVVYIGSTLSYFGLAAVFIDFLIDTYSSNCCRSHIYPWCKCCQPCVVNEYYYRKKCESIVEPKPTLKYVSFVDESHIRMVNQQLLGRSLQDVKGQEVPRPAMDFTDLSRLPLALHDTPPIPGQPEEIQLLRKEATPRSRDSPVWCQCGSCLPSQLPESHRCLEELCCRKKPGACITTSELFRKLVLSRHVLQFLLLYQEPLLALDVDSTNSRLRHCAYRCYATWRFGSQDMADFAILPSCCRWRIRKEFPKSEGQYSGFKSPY
Type: cell-based
Procedure: Alternate Method for IL-1β Release Assay
THP-1 cells (ATCC Cat #285-IF-100) are plated in 96 well plates at a concentration of 200,000 cells per well and allowed to differentiate in RPMI-1640 media (ATCC Cat #30-2001) containing 10% FBS, 100 IU/mL penicillin, 100 ug/mL streptomycin, 100 ng/mL LPS and 100 ng/mL IFN-γ for 16 hours. Following differentiation, the cells are treated for an additional 2 hours in RPMI-1640 media containing 100 IU/mL penicillin, 100 ug/mL streptomycin and fresh LPS at 100 ng/mL. The cells are then pretreated for 30 minutes with the compound of interest at the appropriate concentration in RPMI media containing 100 IU/mL penicillin, 100 ug/mL streptomycin. Following the pretreatment 2′,3′-O-(4-benzoylbenzoyl)-adenosine 5′-triphosphate (Sigma Aldrich Cat# B6396) is added to a final concentration of 250 uM and the cells incubated for an additional 45 minutes. 30 uL of cell supernatant is then collected and IL-1β levels determined via ELISA (R&D systems Cat. # HSLB50) according to manufacturers recommendations using the Tecan Safire plate reader. Background adjusted IL-1β levels of drug treated and non-treated cells are used to calculate the percent inhibition.

| Structure (SMILES) | inhibition at 0.1 µM [%] |
| --- | --- |
| N#Cc1cccc(C(=O)N2CCc3c(ncnc3NCC34CC5CC(CC(C5)C3)C4)C2)c1 [Compound 97] | > 75 |
| O=C(COc1ccccc1)N1CCc2c(ncnc2NCC23CC4CC(CC(C4)C2)C3)C1 [Compound 104] | 50 to 75 |
| COc1cccc(C(=O)N2CCc3c(ncnc3NCC34CC5CC(CC(C5)C3)C4)C2)c1 [Compound 105] | 25 to 50 |
| O=C(c1ccc(F)cc1)N1CCc2c(ncnc2NCC23CC4CC(CC(C4)C2)C3)C1 [Compound 106] | > 75 |
| O=C(C1CC1)N1CCc2c(ncnc2NCC23CC4CC(CC(C4)C2)C3)C1 [Compound 115, 4-[(Adamantan-1-ylmethyl)-amino]-5,8-dihydro-6H-pyrido[3,4-d]pyrimidin-7-yl-cyclopropyl-methanone] | > 75 |
| O=C(c1ccccc1F)N1CCc2c(ncnc2NCC23CC4CC(CC(C4)C2)C3)C1 [Compound 135] | 50 to 75 |
| O=C(c1ccno1)N1CCc2c(ncnc2NCC23CC4CC(CC(C4)C2)C3)C1 [Compound 149] | > 75 |

Same assay, conditions: P2X7; 0.3 μM compound (asterisk symbols); read-out: IL-1β % inhib @ 0.3 μM

| Structure (SMILES) | inhibition at 0.3 µM [%] |
| --- | --- |
| O=C(Cc1ccc(F)cc1)N1CCc2c(ncnc2NCC23CC4CC(CC(C4)C2)C3)C1 [Compound 96] | 50 to 75 |
| O=C(c1ccc(C(F)(F)F)cc1)N1CCc2c(ncnc2NCC23CC4CC(CC(C4)C2)C3)C1 [Compound 98] | 25 to 50 |
| O=C(c1ccc(Cl)c(Cl)c1)N1CCc2c(ncnc2NCC23CC4CC(CC(C4)C2)C3)C1 [Compound 100] | 25 to 50 |
| COc1cc(OC)cc(C(=O)N2CCc3c(ncnc3NCC34CC5CC(CC(C5)C3)C4)C2)c1 [Compound 101] | 0 to 25 |
| O=C(c1c(F)cccc1F)N1CCc2c(ncnc2NCC23CC4CC(CC(C4)C2)C3)C1 [Compound 102] | 50 to 75 |
| O=C(CCc1ccccc1)N1CCc2c(ncnc2NCC23CC4CC(CC(C4)C2)C3)C1 [Compound 103] | > 75 |
| CC(C)(C)C(=O)N1CCc2c(ncnc2NCC23CC4CC(CC(C4)C2)C3)C1 [Compound 107] | 50 to 75 |
| O=C(c1cccc(Cl)c1)N1CCc2c(ncnc2NCC23CC4CC(CC(C4)C2)C3)C1 [Compound 108] | > 75 |
| O=C(COCc1ccccc1)N1CCc2c(ncnc2NCC23CC4CC(CC(C4)C2)C3)C1 [Compound 111] | > 75 |
| O=C(c1ccc(Cl)cc1Cl)N1CCc2c(ncnc2NCC23CC4CC(CC(C4)C2)C3)C1 [Compound 113] | > 75 |
| COc1cccc(CC(=O)N2CCc3c(ncnc3NCC34CC5CC(CC(C5)C3)C4)C2)c1 [Compound 116] | 25 to 50 |
| O=C(COc1ccc(Cl)cc1)N1CCc2c(ncnc2NCC23CC4CC(CC(C4)C2)C3)C1 [Compound 119] | 25 to 50 |
| O=C(Cc1ccc(Cl)cc1)N1CCc2c(ncnc2NCC23CC4CC(CC(C4)C2)C3)C1 [Compound 120] | 25 to 50 |
| O=C(c1ccc(C(F)(F)F)cc1F)N1CCc2c(ncnc2NCC23CC4CC(CC(C4)C2)C3)C1 [Compound 121] | 25 to 50 |
| O=C(c1cc(F)cc(C(F)(F)F)c1)N1CCc2c(ncnc2NCC23CC4CC(CC(C4)C2)C3)C1 [Compound 122] | 0 to 25 |
| O=C(c1cc(C(F)(F)F)ccc1Cl)N1CCc2c(ncnc2NCC23CC4CC(CC(C4)C2)C3)C1 [Compound 126] | 0 to 25 |
| O=C(c1c(F)cccc1Cl)N1CCc2c(ncnc2NCC23CC4CC(CC(C4)C2)C3)C1 [Compound 127] | > 75 |
| Cc1nn(-c2ccccc2)nc1C(=O)N1CCc2c(ncnc2NCC23CC4CC(CC(C4)C2)C3)C1 [Compound 128] | > 75 |
| O=C(c1cccnc1Oc1ccccc1)N1CCc2c(ncnc2NCC23CC4CC(CC(C4)C2)C3)C1 [Compound 129] | > 75 |
| O=C(c1ccc(F)cc1F)N1CCc2c(ncnc2NCC23CC4CC(CC(C4)C2)C3)C1 [Compound 132] | 50 to 75 |
| Cc1ccccc1C(=O)N1CCc2c(ncnc2NCC23CC4CC(CC(C4)C2)C3)C1 [Compound 133] | 25 to 50 |
| O=C(c1cc(F)ccc1F)N1CCc2c(ncnc2NCC23CC4CC(CC(C4)C2)C3)C1 [Compound 134] | > 75 |
| O=C(c1ccc(Cl)nc1)N1CCc2c(ncnc2NCC23CC4CC(CC(C4)C2)C3)C1 [Compound 136] | 0 to 25 |
| O=C(c1cccc(Cl)c1Cl)N1CCc2c(ncnc2NCC23CC4CC(CC(C4)C2)C3)C1 [Compound 137] | > 75 |
| Cc1cc(C(=O)N2CCc3c(ncnc3NCC34CC5CC(CC(C5)C3)C4)C2)nn1C [Compound 139] | 0 to 25 |
| O=C(c1ccc2ccccc2c1)N1CCc2c(ncnc2NCC23CC4CC(CC(C4)C2)C3)C1 [Compound 143] | 50 to 75 |

| Structure (SMILES) | inhibition at 0.3 µM [%] |
| --- | --- |
| Cc1ccc(C(=O)N2CCc3c(ncnc3NCC34CC5CC(CC(C5)C3)C4)C2)cc1 [Compound 144] | 50 to 75 |
| Cc1cc(C(=O)N2CCc3c(ncnc3NCC34CC5CC(CC(C5)C3)C4)C2)c(C)o1 [Compound 146] | > 75 |
| O=C(c1ccccc1Cl)N1CCc2c(ncnc2NCC23CC4CC(CC(C4)C2)C3)C1 [Compound 147] | 0 to 25 |
| CC(=O)N1CCC(C(=O)N2CCc3c(ncnc3NCC34CC5CC(CC(C5)C3)C4)C2)CC1 [Compound 148] | 0 to 25 |
| Cc1cc(C(=O)N2CCc3c(ncnc3NCC34CC5CC(CC(C5)C3)C4)C2)n(C(C)(C)C)n1 [Compound 151] | 25 to 50 |
| CC(C)(C)c1ccc(C(=O)N2CCc3c(ncnc3NCC34CC5CC(CC(C5)C3)C4)C2)cc1 [Compound 152] | > 75 |
| O=C(Cc1ccccc1Br)N1CCc2c(ncnc2NCC23CC4CC(CC(C4)C2)C3)C1 [Compound 153] | 0 to 25 |
| O=C(c1ccc2ccccc2n1)N1CCc2c(ncnc2NCC23CC4CC(CC(C4)C2)C3)C1 [Compound 154] | 25 to 50 |
| COc1ccc(C(=O)N2CCc3c(ncnc3NCC34CC5CC(CC(C5)C3)C4)C2)cc1F [Compound 158] | > 75 |
| COc1ccc(C(=O)N2CCc3c(ncnc3NCC34CC5CC(CC(C5)C3)C4)C2)cc1OC [Compound 159] | > 75 |
| O=C(C1COc2ccccc2C1)N1CCc2c(ncnc2NCC23CC4CC(CC(C4)C2)C3)C1 (centres unmarked) [Compound 160] | > 75 |
| CC(CCN1CCc2c(ncnc2NCC23CC4CC(CC(C4)C2)C3)C1)CC(C)(C)C (centres unmarked) [Compound 163] | > 75 |
| c1ccc(C(CN2CCc3c(ncnc3NCC34CC5CC(CC(C5)C3)C4)C2)c2ccccc2)cc1 [Compound 164] | > 75 |
| CC(CN1CCc2c(ncnc2NCC23CC4CC(CC(C4)C2)C3)C1)c1ccccc1 (centres unmarked) [Compound 165] | 0 to 25 |
| CCCN1CCc2c(ncnc2NCC23CC4CC(CC(C4)C2)C3)C1 [Compound 166] | 0 to 25 |
| c1nc2c(c(NCC34CC5CC(CC(C5)C3)C4)n1)CCN(CC1CCCCC1)C2 [Compound 167] | > 75 |
| c1nc2c(c(NCC34CC5CC(CC(C5)C3)C4)n1)CCN(CC1CC1)C2 [Compound 168] | 0 to 25 |
| CCCCCN1CCc2c(ncnc2NCC23CC4CC(CC(C4)C2)C3)C1 [Compound 169] | > 75 |
| c1ccc(CCCN2CCc3c(ncnc3NCC34CC5CC(CC(C5)C3)C4)C2)cc1 [Compound 170] | 0 to 25 |
| COc1ccc(CN2CCc3c(ncnc3NCC34CC5CC(CC(C5)C3)C4)C2)cc1 [Compound 173] | 0 to 25 |
| c1nc2c(c(NCC34CC5CC(CC(C5)C3)C4)n1)CCN(Cc1ccc3c(c1)OCO3)C2 [Compound 175] | 25 to 50 |
| c1ccc2cc(CN3CCc4c(ncnc4NCC45CC6CC(CC(C6)C4)C5)C3)ccc2c1 [Compound 176] | 0 to 25 |
| COc1ccc(CN2CCc3c(ncnc3NCC34CC5CC(CC(C5)C3)C4)C2)cc1OC [Compound 177] | 0 to 25 |
| Cc1ccc2occ(CN3CCc4c(ncnc4NCC45CC6CC(CC(C6)C4)C5)C3)c(=O)c2c1 [Compound 178] | 25 to 50 |
| c1ccc(Oc2cccc(CN3CCc4c(ncnc4NCC45CC6CC(CC(C6)C4)C5)C3)c2)cc1 [Compound 179] | 25 to 50 |
| Clc1ccc(CN2CCc3c(ncnc3NCC34CC5CC(CC(C5)C3)C4)C2)c(Cl)c1 [Compound 181] | 25 to 50 |
